Source: patent US9346767B2, “Substituted pyrazines and a process for producing the same” (JNC CORPORATION, priority 2011, dated 2016)

Key:
Renilla luciferase-547 = target: T1, Renilla luciferase-547 (Renilla reniformis, UniProt P27652, A123S/A143M/A55T/C124A/D154A/D162E/E155G/F262W/I163V/K136R/M185V/M253L/S130A/S287L); assay: Measurement of emission spectrum with Renilla luciferase-547; type: biochemical; settings: Renilla luciferase-547, 5 μg substrate, 50 mM Tris-HCl (pH 7.6)-10 mM EDTA, 22-25° C.
T1 construct: His6 with pCold-II leader (MNHKVHHHHHHMELG...) (N); made in house; host or cells: Escherichia coli BL21
Method: (§1) The luminescence reaction was initiated by adding luciferase to 1 mL of 50 mM Tris-HCl (pH 7.6)-10 mM EDTA containing 5 μg (1 μg/μL) of substrate coelenterazine or ν-coelenterazine dissolved in ethanol. The protein amounts of luciferases used were Renilla luciferase: 1.5 μg and Renilla luciferase-547: 7.2 μg in the case of coelenterazine as substrate. On the other hand, the protein amounts in ν-coelenterazine as substrate were Renilla luciferase: 14.7 μg and Renilla luciferase-547: 35.8 μg. Luminescence spectra were measured in a quartz cell with a 10 mm optical path under the conditions of band width: 20 nm, sensitivity: medium, scan speed: 2000 nm/min and 22-25° C., using a fluorescence spectrophotometer FP-6500 (manufactured by JASCO) with the excitation light source turned off.

Renilla luciferase [1] = target: T2, Renilla luciferase (Renilla reniformis, UniProt P27652); assay: Measurement of luminescence activity with Renilla luciferase; type: biochemical; design: His tag (from vector pCold-II; inferred from the nickel-chelate purification and the vector) (N); made in house; host or cells: Escherichia coli BL21; settings: Renilla luciferase 2.94 ng, 0.05 μg substrate, 30 mM Tris-HCl (pH 7.6)-10 mM EDTA; relative to coelenterazine
T2 sequence (P27652 1-311): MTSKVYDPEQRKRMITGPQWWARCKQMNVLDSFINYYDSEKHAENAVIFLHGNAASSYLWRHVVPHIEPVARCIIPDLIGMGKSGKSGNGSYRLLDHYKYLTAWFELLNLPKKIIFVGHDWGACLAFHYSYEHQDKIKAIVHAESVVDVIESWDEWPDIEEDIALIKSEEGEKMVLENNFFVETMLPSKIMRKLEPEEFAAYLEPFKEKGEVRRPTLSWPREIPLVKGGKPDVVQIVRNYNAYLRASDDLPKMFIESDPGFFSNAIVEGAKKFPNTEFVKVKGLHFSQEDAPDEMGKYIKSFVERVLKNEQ
Method: After Renilla luciferase (2.94 ng) or Renilla luciferase-547 (14.3 ng) was dispensed into a 96-well microplate (manufactured by Nunc) in an amount of 10 μL/well, 0.1 mL of 30 mM Tris-HCl (pH 7.6)-10 mM EDTA containing 0.05 μg of coelenterazine or ν-coelenterazine was injected into the wells thereby to initiate the luminescence reaction, and the luminescence intensity was measured using a luminescence plate reader Centro LB960 (manufactured by Berthold). The luminescence intensity was measured for 60 seconds 3 times in 0.1 second intervals, and the maximum luminescence intensity (Imax) and the mean (rlu) from luminescence integrated for 60 seconds were expressed in terms of relative activity (%) (TABLE 2).

Renilla luciferase [2] = target: T2, Renilla luciferase; assay: Measurement of emission spectrum with Renilla luciferase; type: biochemical; design: His tag (from vector pCold-II; inferred from the nickel-chelate purification and the vector) (N); made in house; host or cells: Escherichia coli BL21; settings: for Emission Maximum λmax / Emission spectrum half bandwidth: Renilla luciferase, 5 μg substrate, 50 mM Tris-HCl (pH 7.6)-10 mM EDTA, 22-25° C.; for shift of maximum emission wavelength (in words): summary of EXAMPLES, Renilla luciferase and Renilla luciferase-547
Method: as §1

Renilla luciferase [3] = target: T2, Renilla luciferase; settings: substrate for Renilla luciferase, cited from earlier work

T1 sequence (P27652 other isoform, or with tags, fused parts or gaps with the stated changes): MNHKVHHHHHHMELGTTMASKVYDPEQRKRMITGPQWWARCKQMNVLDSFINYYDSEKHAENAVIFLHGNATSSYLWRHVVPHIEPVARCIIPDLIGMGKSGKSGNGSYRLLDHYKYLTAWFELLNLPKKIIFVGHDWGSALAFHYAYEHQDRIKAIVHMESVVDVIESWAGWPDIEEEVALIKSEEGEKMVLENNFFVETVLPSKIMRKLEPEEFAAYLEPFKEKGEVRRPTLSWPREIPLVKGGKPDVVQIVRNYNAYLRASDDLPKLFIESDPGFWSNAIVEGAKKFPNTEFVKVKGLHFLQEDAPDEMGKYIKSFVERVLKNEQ

SMILES | Emission Maximum λmax (Renilla luciferase-547) [nm] | Emission spectrum half bandwidth (Renilla luciferase-547) [nm] | Luminescence integrated for 60 seconds (Int.), relative activity (Renilla luciferase [1]) | Maximum Luminescence Intensity Imax, relative activity (Renilla luciferase [1]) | Emission Maximum λmax (Renilla luciferase [2]) [nm] | Emission spectrum half bandwidth (Renilla luciferase [2]) [nm] | shift of maximum emission wavelength (in words) (Renilla luciferase [2]) | part of emission spectrum distribution reaching the near-infrared region (>700 nm) (Renilla luciferase [3]) [%] | shift of maximum emission wavelength toward the longer wavelength side (Renilla luciferase [3]; from 475 nm) | maximum emission wavelength (Renilla luciferase [3]; green emission) [nm]
O=c1c(Cc2ccc(O)cc2)nc2c(Cc3ccccc3)[nH]c(-c3ccc(O)cc3)cn1-2 [Coelenterazine, coelenterazine, reference compound] | 547.0 | 124 | 100 (100) % | 100 (100) % | 485.0 | 95 | – | – | – | –
O=c1c(Cc2ccc(C(F)(F)F)cc2)nc2c(Cc3ccccc3)[nH]c3c4ccc(O)cc4ccc3n1-2 [cf3-v-Coelenterazine, cf3-ν-coelenterazine] | 599.0 | 132 | 12.3% | 18.9% | 525.5 | 121 | shifted toward a longer wavelength side even relative to ν-coelenterazine | – | – | –
O=c1c(Cc2ccc(O)cc2)nc2c(Cc3ccccc3)[nH]c3c4ccc(O)cc4ccc3n1-2 [v-Coelenterazine, ν-Coelenterazine] | 593.0 | 130 | 47.3% | 71.8% | 519.0 | 105 | shifted toward a longer wavelength side relative to coelenterazine | ~5 | about 40 nm | 512
